Patent US20090221653A1, “7-(2-amino-1-hydroxy-ethyl)-4-hydroxybenzothiazol-2(3H)-one-derivatives as beta2 adrenoreceptor agonists” (AstraZeneca AB, priority 2005, published 2009)
Counter-ions that a name gives are not always drawn.

Key:
[1] = target: T1, recombinant human adrenergic beta 1 receptors (Homo sapiens, UniProt P08588); experiment: Adrenergic β1 selectivity assay, inhibition of [125I]-Iodocyanopindolol binding; settings: membranes, [125I]-Iodocyanopindolol; read-out: β1 bind pIC50 (converted)
T1 construct: purchased Euroscreen
Procedure: Membranes containing recombinant human adrenergic beta 1 receptors were obtained from Euroscreen. These were diluted in Assay Buffer (50 mM HEPES, 1 mM EDTA, 120 mM NaCl, 0.1% gelatin, pH 7.4) to provide a final concentration of membranes that gave a clear window between maximum and minimum specific binding.
Assays were performed in U-bottomed 96-well polypropylene plates. […] Membranes were then added to achieve a final volume of 100 μL. The plates were incubated for 2 hours at room temperature and then filtered onto PEI coated GF/B filter plates, pre-soaked for 1 hour in Assay Buffer, using a 96-well plate Tomtec cell harvester. Five washes with 250 μL wash buffer (50 mM HEPES, 1 mM EDTA, 120 mM NaCl, pH 7.4) were performed at 4° C. to remove unbound radioactivity. The plates were dried then sealed from underneath using Packard plate sealers and MicroScint-O (50 μL) was added to each well. The plates were sealed (TopSeal A) and filter-bound radioactivity was measured with a scintillation counter (TopCount, Packard BioScience) using a 3-minute counting protocol.
(§1) Total specific binding (B0) was determined by subtracting the mean NSB from the mean maximum binding. NSB values were also subtracted from values from all other wells.

[2] = target: T2, recombinant human α1D receptor (Homo sapiens, UniProt P25100); experiment: Adrenergic α1D selectivity assay, inhibition of [3H]-prazosin binding; settings: HEK293 membranes, [3H]-prazosin 0.3 nM; read-out: α1 bind pIC50 (converted)
T2 construct: expressed in transfected cells; host or cells: HEK293
T2 sequence (P25100 1-572): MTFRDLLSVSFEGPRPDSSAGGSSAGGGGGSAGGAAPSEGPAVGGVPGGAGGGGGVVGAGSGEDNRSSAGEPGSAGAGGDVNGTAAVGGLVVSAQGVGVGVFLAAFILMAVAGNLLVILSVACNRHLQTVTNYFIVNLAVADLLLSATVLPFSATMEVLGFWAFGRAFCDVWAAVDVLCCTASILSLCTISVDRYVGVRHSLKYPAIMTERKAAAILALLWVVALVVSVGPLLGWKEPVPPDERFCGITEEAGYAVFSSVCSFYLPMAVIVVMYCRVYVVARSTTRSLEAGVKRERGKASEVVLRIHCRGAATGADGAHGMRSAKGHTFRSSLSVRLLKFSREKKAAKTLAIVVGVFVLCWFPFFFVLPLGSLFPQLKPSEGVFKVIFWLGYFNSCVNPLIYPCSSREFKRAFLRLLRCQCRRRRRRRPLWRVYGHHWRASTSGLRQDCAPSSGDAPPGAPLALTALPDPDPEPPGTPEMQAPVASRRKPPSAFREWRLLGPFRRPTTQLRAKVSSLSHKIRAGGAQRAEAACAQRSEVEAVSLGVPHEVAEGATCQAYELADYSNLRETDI
Procedure: Membranes were prepared from human embryonic kidney 293 (HEK293) cells expressing recombinant human α1D receptor. These were diluted in Assay Buffer (50 mM HEPES, 1 mM EDTA, 0.1% gelatin, pH 7.4) to provide a final concentration of membranes that gave a clear window between maximum and minimum specific binding.
Assays were performed in U-bottomed 96-well polypropylene plates. 10 μL [^3H]-prazosin (0.3 nM final concentration) and 10 μL of test compound (10× final concentration) were added to each test well. For each assay plate 8 replicates were obtained for [^3H]-prazosin binding in the presence of 10 μL vehicle (10% (v/v) DMSO in Assay Buffer; defining maximum binding) or 10 μL BMY7378 (10 μM final concentration; defining non-specific binding (NSB)). Membranes were then added to achieve a final volume of 100 μL. The plates were incubated for 2 hours at room temperature and then filtered onto PEI coated GF/B filter plates, pre-soaked for 1 hour in Assay Buffer, using a 96-well plate Tomtec cell harvester. Five washes with 250 μL wash buffer (50 mM HEPES, 1 mM EDTA, pH 7.4) were performed at 4° C. to remove unbound radioactivity. The plates were dried then sealed from underneath using Packard plate sealers and MicroScint-O (50 μL) was added to each well. The plates were sealed (TopSeal A) and filter-bound radioactivity was measured with a scintillation counter (TopCount, Packard BioScience) using a 3-minute counting protocol.
as §1

[3] = target: T3, β2 receptor (Homo sapiens, UniProt P07550); experiment: Adrenergic β2 mediated cAMP production in H292 cells (AlphaScreen cAMP detection); type: cell-based; settings: for EC50: cAMP, test compounds incubated 10 minutes, 300 μM rolipram; for Intrinsic Activity: fraction relative to the maximum activity determined for formoterol, 10 minutes incubation
T3 construct: endogenous in cells; host or cells: H292 cells
Procedure: H292 cells were grown in RPMI (Roswell Park Memorial Institute) medium containing, 10% (v/v) FBS (foetal bovine serum) and 2 mM L-glutamine. Cells were grown in 225 cm2 flasks containing 25 mL media in a humidified incubator at 37° C., 5% CO2. Cells were harvested from the flask and passaged at a 1 in 10 dilution once per week.
The media from flasks containing H292 cells was removed, rinsed with 10 mL PBS (phosphate buffered saline) and replaced with 10 mL Accutase™ cell detachment solution. Flasks were incubated for 15 minutes in a humidified incubator at 37° C., 5% CO2. The cell suspension was counted and the cells re-suspended in RPMI media (containing 10% (v/v) FBS and 2 mM L-glutamine) at 0.05×10^6 cells per mL. 5000 cells in 100 μL were added to each well of a tissue-culture-treated 96-well plate and the cells incubated overnight in a humidified incubator at 37° C., 5% CO2. The culture media was removed, washed twice with 100 μL assay buffer and replaced with 50 μL assay buffer. Cells were rested at room temperature for 20 minutes after which time 25 μL of rolipram (1.2 mM made up in assay buffer containing 2.4% (v/v) dimethylsulphoxide) was added. Cells were incubated with rolipram for 10 minutes after which time test compounds (made up as ×4 concentrated stocks in assay buffer containing 4% (v/v) dimethylsulphoxide) were added and the cells were incubated for 10 minutes at room temperature. Final rolipram concentration in the assay was 300 μM and final vehicle concentration was 1.6% (v/v) dimethylsulphoxide. The reaction was stopped by removing supernatants, washing once with 100 μL assay buffer and replacing with 50 μL lysis buffer. The cell monolayer was frozen at −80° C. for 30 minutes (or overnight).
The concentration of cAMP (cyclic adenosine monophosphate) in the cell lysate was determined using the AlphaScreen™ methodology. The frozen cell plate was thawed for 20 minutes on a plate shaker then 10 μL of the cell lysate was transferred to a 96-well white plate. 40 μL of mixed AlphaScreen™ detection beads (containing equal volumes of donor beads (pre-incubated with biotinylated cAMP in the dark for 30 minutes) and acceptor beads), was added to each well and the plate incubated at room temperature for 10 hours in the dark. The AlphaScreen™ signal was measured using an EnVision spectrophotometer (Perkin-Elmer Inc.) with the recommended manufacturer's settings. cAMP concentrations were determined by reference to a calibration curve determined in the same experiment using standard cAMP concentrations (made up in lysis buffer in a 96-well tissue-culture-treated plate and frozen/thawed alongside the test samples) and detected using the same protocol. Concentration response curves for agonists were constructed to determine both the pEC50 and Intrinsic Activity.

T3 sequence (P07550 whole entry): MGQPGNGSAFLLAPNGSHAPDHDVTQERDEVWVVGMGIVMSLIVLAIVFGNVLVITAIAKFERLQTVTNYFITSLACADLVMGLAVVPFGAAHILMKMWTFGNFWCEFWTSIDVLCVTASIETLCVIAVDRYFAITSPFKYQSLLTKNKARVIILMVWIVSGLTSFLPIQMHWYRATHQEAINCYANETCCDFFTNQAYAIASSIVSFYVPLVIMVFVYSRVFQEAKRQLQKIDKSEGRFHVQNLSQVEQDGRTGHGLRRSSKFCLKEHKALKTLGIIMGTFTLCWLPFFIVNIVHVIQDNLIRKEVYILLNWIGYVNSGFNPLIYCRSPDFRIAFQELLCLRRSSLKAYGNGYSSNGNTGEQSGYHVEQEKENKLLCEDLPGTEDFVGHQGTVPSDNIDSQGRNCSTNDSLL
T1 sequence (P08588 whole entry): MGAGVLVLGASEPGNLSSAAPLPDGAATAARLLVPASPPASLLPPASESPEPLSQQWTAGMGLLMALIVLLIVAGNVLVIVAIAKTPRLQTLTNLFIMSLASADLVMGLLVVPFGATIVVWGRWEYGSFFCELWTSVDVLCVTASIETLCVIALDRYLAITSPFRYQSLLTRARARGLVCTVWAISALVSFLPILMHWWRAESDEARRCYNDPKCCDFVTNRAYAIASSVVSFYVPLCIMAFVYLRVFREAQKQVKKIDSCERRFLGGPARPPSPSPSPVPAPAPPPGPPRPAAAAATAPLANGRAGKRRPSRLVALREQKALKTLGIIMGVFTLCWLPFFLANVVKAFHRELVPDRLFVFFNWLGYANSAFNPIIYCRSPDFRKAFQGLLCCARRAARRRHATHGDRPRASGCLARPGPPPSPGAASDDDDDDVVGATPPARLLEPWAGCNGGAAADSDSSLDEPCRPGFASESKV

| Compound | IC50 [1] | IC50 [2] | EC50 [3] | Intrinsic Activity [3] |
| --- | --- | --- | --- | --- |
| O=c1[nH]c2c(O)ccc([C@@H](O)CNCCCS(=O)(=O)CCOCCc3cccc4ccccc34)c2s1 [Example 2, 4-Hydroxy-7-((1R)-1-hydroxy-2-{[3-({2-[2-(1-naphthyl)ethoxy]ethyl}sulfonyl)propyl]-amino}ethyl)-1,3-benzothiazol-2(3H)-one trifluoroacetate] | 15.8 nM | 1000 nM | 0.158 nM | 1.0 |
| Cl.O=c1[nH]c2c(O)ccc([C@@H](O)CNCCSCCOCCc3cccc4ccccc34)c2s1 [Example 4, 4-Hydroxy-7-((1R)-1-hydroxy-2-{[2-({2-[2-(1-naphthyl)ethoxy]ethyl}thio)ethyl]-amino}ethyl)-1,3-benzothiazol-2(3H)-one hydrochloride] | 126 nM | 200 nM | 0.1 nM | 0.9 |
